Experimental data published in patent US6806230B1, “Pyrimidine derivatives and herbicides containing them” (Kumiai Chemical Industry Co., Ltd., priority 1999, dated 2004).

Tests used:
Type in all cases: in vivo
[1] = system: barnyard grass (Eo); assay: Test Example 1: herbicidal effects by flooded paddy field treatment; settings: dose 100 gai/10a, examined on 21st day after treatment, index 0-5 per Table 44;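 further: 0-5 growth inhibition grade; 5 = over 90%; 4 = 70-90%; 3 = 50-70%; 2 = 30-50%; 1 = 10-30%; 0 = under 10%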
Method in brief: (§1)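 Herbicidal effect scored 21 days post-treatment after greenhouse cultivation. Treatment was applied dropwise to the water surface, one day after sowing, as a diluted wettable powder (100 g a.i./10 ares). Pots held puddled paddy soil under 3 cm water.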

[2] = system: green foxtail (Se); assay: Test Example 2: herbicidal effects by upland soil treatment; settings: dose 100 g active ingredient per 10 ares, examined on the 21st day after treatment, standards of Table 44;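 further: 0-5 growth inhibition grade; 5 = over 90%; 4 = 70-90%; 3 = 50-70%; 2 = 30-50%; 1 = 10-30%; 0 = under 10%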
Method in brief: (§2)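 Pre-emergence test: barnyard grass and green foxtail sown in upland soil, then soil surface sprayed with wettable-powder formulation at 100 g active ingredient per 10 ares (100 l per 10 ares). Grown in greenhouse; herbicidal effect scored on a rating scale 21 days after treatment.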

[3] = system: wheat (Tr); assay: Test Example 5: selectivity for a crop plant by soil treatment in upland field; design: scale not given here; settings: dose 25 gai/10a, 21st day after treatment, index per Table 44
Method in brief: (§3)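 Upland soil in pots was sown with barnyard grass, green foxtail, soybean, wheat and corn. A diluted wettable powder was sprayed onto the soil surface (100 l per 10 ares) at 25 g active ingredient per 10 ares. Herbicidal effect was scored against a rating standard 21 days after treatment, with plants grown in a greenhouse.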

[4] = system: barnyard grass (Ec); assay: as above; design: scale not given here; settings: dose 25 gai/10a, 21st day after treatment, index per Table 44
Method in brief: as §3

[5] = system: soybean (G1); assay: as above; design: scale not given here; settings: dose 25 gai/10a, 21st day after treatment, index per Table 44
Method in brief: as §3

[6] = system: corn (Ze); assay: as above; design: scale not given here; settings: dose 25 gai/10a, 21st day after treatment, index per Table 44
Method in brief: as §3

[7] = system: monochoria (Mo); assay: Test Example 1: herbicidal effects by flooded paddy field treatment; settings: dose 100 gai/10a, examined on 21st day after treatment, index 0-5 per Table 44;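 further: 0-5 growth inhibition grade; 5 = over 90%; 4 = 70-90%; 3 = 50-70%; 2 = 30-50%; 1 = 10-30%; 0 = under 10%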
Method in brief: as §1

[8] = system: barnyard grass (Ec); assay: Test Example 2: herbicidal effects by upland soil treatment; design: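 0-5 growth inhibition grade; 5 = over 90%; 4 = 70-90%; 3 = 50-70%; 2 = 30-50%; 1 = 10-30%; 0 = under 10%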; settings: dose 100 g active ingredient per 10 ares, examined on the 21st day after treatment, standards of Table 44
Method in brief: as §2

[9] = system: rice (Or); assay: Test Example 4: selectivity for a crop plant by flooded paddy field treatment; design: scale not given here; settings: rice transplanted at second leaf stage, dose 25 g active ingredient per 10 ares, examined on the 21st day after treatment
Method in brief: (§4)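 Flooded-paddy treatment: the wettable powder formulation, diluted in water, was applied dropwise to 3 cm floodwater at 25 g a.i./10 ares one day after sowing barnyard grass and monochoria and transplanting rice at the second leaf stage. Greenhouse grown; herbicidal effect rated against set standards on day 21.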

[10] = system: barnyard grass (Eo); assay: as above; design: scale not given here; settings: dose 25 g active ingredient per 10 ares, examined on the 21st day after treatment
Method in brief: as §4

[11] = system: monochoria (Mo); assay: as above; design: scale not given here; settings: dose 25 g active ingredient per 10 ares, examined on the 21st day after treatment
Method in brief: as §4

[12] = system: barnyard grass (Ec); assay: Test Example 3: herbicidal effects by foliage treatment in upland field; design: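 0-5 growth inhibition grade; 5 = over 90%; 4 = 70-90%; 3 = 50-70%; 2 = 30-50%; 1 = 10-30%; 0 = under 10%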; settings: dose 100 g active ingredient per 10 ares, examined on the 14th day after treatment
Method in brief: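 Barnyard grass and green foxtail were grown in upland soil for 2 weeks in a greenhouse. A water-diluted wettable powder was sprayed over the foliage at 100 l per 10 ares, giving 100 g active ingredient per 10 ares. Herbicidal effect was scored on day 14 after treatment.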

SMILES	Herbicidal effect index, Eo [1]	herbicidal effects, Se (green foxtail) [2]	Tr (herbicidal effect index on crop) [3]	Ec (herbicidal effect index) [4]	Gl (herbicidal effect index on crop) [5]	Ze (herbicidal effect index on crop) [6]	Herbicidal effect index, Mo [7]	herbicidal effects, Ec (barnyard grass) [8]	Or (effect on crop plant rice, index) [9]	Eo (herbicidal effects, index) [10]	Mo (herbicidal effects, index) [11]	Ec (herbicidal effects, index) [12]
CN(C(=O)Cc1ccc(Cl)cc1)C(c1cncnc1C(F)(F)F)C(C)(C)C (racemic) [Compound 1-54]	5	5	1	4	0	0	5	5	1	5	5	5
CC(C)C(c1cncnc1C(F)(F)F)N(C(=O)Cc1ccc(F)cc1)C1CC1 (racemic) [Compound 1-83]	5	5	2	5	1	1	5	5	1	5	5	5
CC(C)C(c1cncnc1C1CC1)N(C)C(=O)Cc1ccc(Cl)cc1 (racemic) [Compound 1-78]	5	5	1	5	0	0	5	5	1	5	5	5
CN(C(=O)Cc1ccc(F)cc1)C(c1cncnc1C(F)(F)F)C(C)(C)C (racemic) [Compound 1-53]	5	5	2	4	1	0	5	5	1	5	5	4
CC(C)C(c1cncnc1C(F)(F)F)N(C)C(=O)Cc1ccc(I)cc1 (racemic) [Compound 1-42]	5	5	0	5	0	0	5	5	0	5	5	4
Cc1ccc(CC(=O)N(C)C(c2cncnc2C(F)(F)F)C(C)(C)C)cc1 (racemic) [Compound 1-55]	5	5	1	5	1	0	5	5	1	5	5	4
Cc1ccccc1CC(=O)N(C)C(c1cncnc1C(F)(F)F)C(C)C (racemic) [Compound 1-50]	5	5	3	4	3	0	5	5	1	5	5	4
CCN(C(=O)Cc1ccc(C)cc1)C(c1cncnc1C(F)(F)F)C(C)C (racemic) [Compound 1-61]	5	5	3	5	1	0	5	5	1	5	5	4
CC(C)C(c1cncnc1C(F)(F)F)N(C(=O)Cc1ccc(Cl)cc1)C1CC1 (racemic) [Compound 1-81]	5	5	1	4	0	0	5	5	0	5	5	4
CCN(C(=O)Cc1ccc(Cl)cc1)C(c1cncnc1C(F)(F)F)C(C)C (racemic) [Compound 1-48]	5	5	1	4	0	0	5	5	1	5	5	5
Cc1ncncc1C(C(C)C)N(C)C(=O)Cc1ccc(Cl)cc1 (racemic) [Compound 1-56]	5	5	4	5	0	3	5	5	–	–	–	4
